From US6448203B1, “Substituted aryluracils” (Bayer Aktiengesellschaft, priority 1997, dated 2002) come the findings set out here.

The test system of series [1] is Sinapis. As to the kind of experiment: Pre-emergence test. The settings on record: application rate of 250 g/ha, after three weeks, 0%=no effect, 100%=total destruction. Type of series: in vivo. On the procedure:
(§1) Pre-Emergence Test Solvent: 5 parts by weight of acetone Emulsifier: 1 part by weight of alkylaryl polyglycol ether To produce a suitable preparation of active compound, 1 part by weight of active compound is mixed with the stated amount of solvent, the stated amount of emulsifier is added and the concentrate is diluted with water to the desired concentration. Seeds of the test plants are sown in normal soil. After about 24 hours, the soil is sprayed with the preparation of active compound in such a way as to apply the particular amounts of active compound desired per unit area. The concentration of the spray liquor is chosen such that the particular amounts of active compound desired are applied in 1000 l of water/ha. After three weeks, the degree of damage to the plants is rated in % damage in comparison to the development of the untreated control. The figures denote: 0%=no effect (like untreated control) 100%=total destruction

Series [2] deals with Setaria. In words: Pre-emergence test. Type of series: in vivo. The settings on record: application rate of 250 g/ha, after three weeks, 0%=no effect, 100%=total destruction. The method, then:
as §1

In series [3] the test system is Amaranthus. In words: Pre-emergence test. Type of series: in vivo. The settings on record: application rate of 250 g/ha, after three weeks, 0%=no effect, 100%=total destruction. The method, then: as §1
Series [4] has as its system Abutilon. As to the kind of experiment: Pre-emergence test. The settings on record: application rate of 250 g/ha, after three weeks, 0%=no effect, 100%=total destruction. Type of series: in vivo. The method, then: as §1
Series [5] has as its system Sinapis. As to the kind of experiment: Post-emergence test. Type of series: in vivo. The settings on record: application rate of 250 glha, after three weeks, 0%=no effect, 100%=total destruction. The method, then: (§2) Post-Emergence Test Solvent: 5 parts by weight of acetone Emulsifier: 1 part by weight of alkylaryl polyglycol ether To produce a suitable preparation of active compound, 1 part by weight of active compound is mixed with the stated amount of solvent, the stated amount of emulsifier is added and the concentrate is diluted with water to the desired concentration. Test plants which have a height of 5-15 cm are sprayed with the preparation of active compound in such a way that the particular amounts of active compound desired are applied per unit area. The concentration of the spray liquor is chosen such that the particular amounts of active compound desired are applied in […] of water/ha. After three weeks, the degree of damage to the plants is rated in % damage in comparison to the development of the untreated control. The figures denote: 0%=no effect (like untreated control) 100%=total destruction

Series [6] concerns Setaria. In words: Post-emergence test. The settings on record: application rate of 250 glha, after three weeks, 0%=no effect, 100%=total destruction. Type of series: in vivo. The method, then: as §2
The test system of series [7] is Amaranthus. As to the kind of experiment: Post-emergence test. Type of series: in vivo. The settings on record: application rate of 250 glha, after three weeks, 0%=no effect, 100%=total destruction. On the procedure: as §2
Series [8] relates to Abutilon. In words: Post-emergence test. Type of series: in vivo. The settings on record: application rate of 250 glha, after three weeks, 0%=no effect, 100%=total destruction. On the procedure: as §2
Series [9] concerns mustard beetle larvae (Phaedon cochleariae). In words: Phaedon larvae test. The settings on record: active compound concentration of 0.1%; after 7 days; dipped cabbage leaves (Brassica oleracea). Type of series: in vivo. On the procedure: Phaedon Larvae Test Solvent: 7 parts by weight of dimethylformamide Emulsifier: 1 part by weight of alkylaryl polyglycol ether To produce a suitable preparation of active compound, 1 part by weight of active compound is mixed with the stated amount of solvent and the stated amount of emulsifier, and the concentrate is diluted with water to the desired concentration. Cabbage leaves (Brassica oleracea) are treated by being dipped into the preparation of active compound of the desired concentration and are populated with mustard beetle larvae (Phaedon cochleariae) while the leaves are still moist. After the desired period of time, the kill in % is determined. 100% means that all beetle larvae have been killed; 0% means that none of the beetle larvae have been killed.

Molecules are shown by their SMILES.

By melting point is commonly meant the temperature of the solid-liquid transition. Compound `O=c1cc(C(F)(F)F)[nH]c(=O)n1-c1ccc(OCc2ccc(Cl)nc2)cc1F` [Example 1, 1-[2-fluoro-4-(2-chloro-pyridin-5-y1-methoxy)-phenyl]-4-trifluoromethyl-3,6-dihydro-2,6-dioxo-1(2H)-pyrimidine] returned a melting point of 212 °C.

`Cn1c(C(F)(F)F)cc(=O)n(-c2ccc(OCc3ccc(Cl)nc3)cc2F)c1=O` [Preparation Example 2, 1-[2-fluoro4-(2-chloro-pyridin-5-yl-methoxy)-phenyl]-3-methyl4-trifluoromethyl-3,6-dihydro-2,6-dioxo-1 (2H)-pyrimidine] displayed a melting point of 164 °C. Also, the “degree of damage to the plants (% damage), Sinapis” value (shortened to “degree … (% damage), Sinapis”) in [1] was determined as 100%. In addition, in [2], the “degree of damage to the plants (% damage), Setaria” value (from here on “degree … (% damage), Setaria”) came to 100%. The “degree of damage to the plants (% damage), Amaranthus” value (“degree … (% damage), Amaranthus” for short) in [3] is 100%. Besides, the “degree of damage to the plants (% damage), Abutilon” value (“degree … (% damage), Abutilon” below) in [4] is recorded as 100%. The “degree … (% damage), Sinapis” value in series [5] was determined as 100%. For the same compound, the “degree … (% damage), Setaria” value in series [6] is 100%. The “degree … (% damage), Amaranthus” value in series [7] is on record as 100%. Moreover, in [8], the “degree … (% damage), Abutilon” value is 100%.

Compound `Nn1c(C(F)(F)F)cc(=O)n(-c2ccc(OCc3ccc(Cl)nc3)cc2F)c1=O` [Preparation Example 3, 3-amino-1-[2-fluoro4-(2-chloro-pyridin-5-yl-methoxy)-phenyl]4-trifluoromethyl-3,6-dihydro-2,6-dioxo-1 (2H)-pyrimidine] gave a melting point of 171 °C.

In the case of `Nn1c(C(F)(F)F)cc(=O)n(-c2ccc(OCc3ccc(Cl)nc3)cc2F)c1=O` [compound 3], the “degree … (% damage), Sinapis” value in series [1] and in series [5] was 100% throughout. Besides, the “degree … (% damage), Setaria” value in series [2] and in [6] was 100% each time. For the same compound, the “degree … (% damage), Amaranthus” value in series [3] and in series [7] was 100% each time. The “degree … (% damage), Abutilon” value in series [4] and in [8] was 100% in each case. The kill in % in series [9] is recorded as 100%.
